These results are taken from US9226919B2, “Methods for dosing an orally active 1,2,4-oxadiazole” (PTC Therapeutics, Inc., priority 2006, dated 2016).

Where two headings read alike, the source gives them in different places.

A short description of this data set: Plasma pharmacokinetics, Phase 2 Duchenne muscular dystrophy study. Conditions: for AUC(0-t) / Cmax: human, oral. The format is in vivo, human. The source says:
FIG. 1 provides the plasma 3-[5-(2-fluoro-phenyl)-[1,2,4]oxadiazol-3-yl]-benzoic acid concentration-time profiles and PK parameters from 37 of 38 patients in a Phase 2 Duchenne muscular dystrophy study at 4-, 4-, and 8-mg/kg; 10-, 10-, and 20-mg/kg; and 20-, 20- and 40-mg/kg dose levels. The data from one patient was excluded from analysis due to insufficient data.
3-[5-(2-Fluoro-phenyl)-[1,2,4]oxadiazol-3-yl]-benzoic acid was provided in a formulation described herein. Treatment was administered over 28 days for each treatment cohort. An initial cohort of patients (n=6) were treated daily for 28 days with 3-[5-(2-fluoro-phenyl)-[1,2,4]oxadiazol-3-yl]-benzoic acid at 4-, 4-, and 8-mg/kg TID. After review of the clinical safety results, a second cohort of patients (n=20) were treated daily for 28 days with 3-[5-(2-fluoro-phenyl)-[1,2,4]oxadiazol-3-yl]-benzoic acid at 10-, 10-, and 20-mg/kg TID. Thus, each patient received a total of 84 doses of 3-[5-(2-fluoro-phenyl)-[1,2,4]oxadiazol-3-yl]-benzoic acid.
Blood for 3-[5-(2-fluoro-phenyl)-[1,2,4]oxadiazol-3-yl]-benzoic acid concentrations is collected immediately pre-dose and at 3 hours after administration of the first daily dose of study drug on the second day of each visit.
The study drug dosing and sample collection times are recorded. If a heparinized venous catheter is used for sample collection in order to avoid repeated needle sticks, at least 2 mL of blood is removed and discarded prior to each sample collection in order to avoid heparin contamination of the sample. All attempts are made to collect the blood samples at, or within ±5 minutes of, the scheduled time. The timing of the blood draw is in relation to the study drug dosing time.
Each sample comprises 2 mL of venous blood drawn into a 5-mL Vacutainer® or equivalent tube with K3-EDTA as the anticoagulant. Immediately after collection, the tube is gently inverted 8 to 10 times to mix the anticoagulant with the blood sample. The tube is stored upright on ice until centrifugation; centrifugation and sample processing are performed within 1 hour of sample collection. The plasma fraction is separated by placing the collection tube into a refrigerated centrifuge (4 to 8° C.) in a horizontal rotor (with a swing-out head) for a minimum of 15 minutes at 1500 to 1800 relative centrifugal force (RCF). The plasma fraction is withdrawn by pipette and divided into 2 polypropylene freezing tubes (with each tube receiving approximately equal aliquots). All sample collection and freezing tubes are clearly labeled in a fashion that identifies the subject, the study period, and the collection date and time. Labels are fixed to freezing tubes in a manner that will prevent the label from becoming detached after freezing. After processing, samples are placed into a freezer at approximately −20° C. (or lower).
Samples are stored for analysis of 3-[5-(2-fluoro-phenyl)-[1,2,4]oxadiazol-3-yl]-benzoic acid at the end of the study using a validated high performance liquid chromatography with tandem mass spectrometry (HPLC/MS-MS) method. Thereafter, samples are retained for potential later analyses.

The mark [1] stands for this setting: 10, 10, 20 mg/kg TID, N = 20, mean.
Where [2] appears, read: 20, 20, 40 mg/kg TID, N = 11, mean.

The term Cmax denotes the peak of the concentration-time curve. Take `O=C(O)c1cccc(-c2noc(-c3ccccc3F)n2)c1` [3-[5-(2-fluoro-phenyl)-[1,2,4]oxadiazol-3-yl]-benzoic acid]: the “Cmin, Day 1” value was found to be 500 ng/mL (4, 4, 8 mg/kg TID, N = 6, mean); 3800 ng/mL under setting [1]; 9600 ng/mL under setting [2]. Besides, the “Cmin, Day 28” value (4, 4, 8 mg/kg TID, N = 6, mean) is 600 ng/mL; the “Cmin, Day 28” value under setting [1] was 3400 ng/mL; the “Cmin, Day 28” value under setting [2] came to 6700 ng/mL. The AUC(0-t) came out at 87 µg·h/mL (8 mg/kg, 4, 4, 8 mg/kg TID, N = 6, mean, read-out: AUC0-24, Day 1); 91 µg·h/mL (8 mg/kg, 4, 4, 8 mg/kg TID, N = 6, mean, read-out: AUC0-24, Day 28); 291 µg·h/mL (20 mg/kg, 10, 10, 20 mg/kg TID, N = 20, mean, read-out: AUC0-24, Day 1); 235 µg·h/mL (20 mg/kg, 10, 10, 20 mg/kg TID, N = 20, mean, read-out: AUC0-24, Day 28); 866 µg·h/mL (40 mg/kg, 20, 20, 40 mg/kg TID, N = 11, mean, read-out: AUC0-24, Day 1); 490 µg·h/mL (40 mg/kg, 20, 20, 40 mg/kg TID, N = 11, mean, read-out: AUC0-24, Day 28). Further, the Cmax (8 mg/kg, 4, 4, 8 mg/kg TID, N = 6, mean, read-out: Cmax, Day 1) came to 10000 ng/mL; the Cmax (8 mg/kg, 4, 4, 8 mg/kg TID, N = 6, mean, read-out: Cmax, Day 28) amounted to 11000 ng/mL; the Cmax (20 mg/kg, 10, 10, 20 mg/kg TID, N = 20, mean, read-out: Cmax, Day 1) was 27000 ng/mL; the Cmax (20 mg/kg, 10, 10, 20 mg/kg TID, N = 20, mean, read-out: Cmax, Day 28) is 22000 ng/mL; the Cmax (40 mg/kg, 20, 20, 40 mg/kg TID, N = 11, mean, read-out: Cmax, Day 1) came out at 76000 ng/mL; the Cmax (40 mg/kg, 20, 20, 40 mg/kg TID, N = 11, mean, read-out: Cmax, Day 28) is 46000 ng/mL.
